Tests used:
[1] = target: T1, wild type AXL (wtAXL) receptor tyrosine kinase (Homo sapiens, UniProt P30530); experiment: NIH-3T3-AXL cellular kinase assay (pY-AXL-ELISA); format: cell-based; conditions: NIH-3T3-AXL (clone 22) cells, serum depleted, compounds 1 h; Table Ia
T1 construct: WtAXL cDNA was cloned into vector pLXSN(ESK) and transfected into Phoenix E packaging cells; expressed in transfected cells; host or cells: NIH3T3 N7 (mouse fibroblasts), retrovirally infected, clone 22
T1 sequence (P30530 26-894): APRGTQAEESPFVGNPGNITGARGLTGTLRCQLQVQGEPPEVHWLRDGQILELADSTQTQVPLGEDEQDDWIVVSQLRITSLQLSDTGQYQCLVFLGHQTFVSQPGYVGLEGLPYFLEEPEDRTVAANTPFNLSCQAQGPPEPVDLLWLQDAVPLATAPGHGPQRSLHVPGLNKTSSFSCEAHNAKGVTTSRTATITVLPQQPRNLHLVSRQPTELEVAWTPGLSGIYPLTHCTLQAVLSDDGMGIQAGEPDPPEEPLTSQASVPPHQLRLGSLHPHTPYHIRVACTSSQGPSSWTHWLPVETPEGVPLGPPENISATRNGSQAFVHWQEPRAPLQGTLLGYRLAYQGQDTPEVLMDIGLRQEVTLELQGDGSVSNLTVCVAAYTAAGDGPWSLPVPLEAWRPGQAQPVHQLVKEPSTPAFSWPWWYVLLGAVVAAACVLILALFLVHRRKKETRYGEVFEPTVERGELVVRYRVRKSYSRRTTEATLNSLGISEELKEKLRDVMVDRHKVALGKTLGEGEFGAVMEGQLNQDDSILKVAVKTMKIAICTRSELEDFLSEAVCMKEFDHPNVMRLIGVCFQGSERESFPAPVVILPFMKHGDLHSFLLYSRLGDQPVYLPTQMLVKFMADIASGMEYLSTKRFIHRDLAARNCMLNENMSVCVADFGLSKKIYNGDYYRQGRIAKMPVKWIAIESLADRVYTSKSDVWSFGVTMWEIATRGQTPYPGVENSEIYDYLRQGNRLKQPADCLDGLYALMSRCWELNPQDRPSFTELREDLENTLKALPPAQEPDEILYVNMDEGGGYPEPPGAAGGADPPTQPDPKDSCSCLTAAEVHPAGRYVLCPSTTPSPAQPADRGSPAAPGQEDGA
Procedure: WtAXL cDNA was cloned into vector pLXSN(ESK) and transfected into Phoenix E packaging cells. The viral supernatant was collected and used to infect target cells NIH3T3 N7. Monoclonal NIH3T3-AXL cell lines stably expressing wtAXL were generated by selecting retrovirally infected cells in medium containing puromycin (2 μg/ml) and subsequent clonal separation.
Serial dilutions of compounds were added, and the cells were further incubated for 1 h. Cells were washed with PBS and lysed on ice in 500 μl lysis buffer (50 mM HEPES (pH 7.5), 150 mM NaCl, 1 mM EGTA, 10% Glycerol, 1% Triton X-100, 100 mM NaF, 10 mM Na4P2O7.10H2O, 1 mM Na3VO4, 1 mM phenylmethylsulfonyl fluoride, and […]) for 15 min. The cell lysate were used for phosphotyrosine AXL enzyme-linked immunosorbant assay (pY-AXL-ELISA). […] Subsequently 96-well plates were blocked with PBS-0.05% Tween®20+10% FBS for 4 h at 37° C. Plates were washed 5 times with PBS-0.05% Tween®20 and 95 μl of lysate was transferred per well for incubation overnight at 4° C. Plates were washed 5 times with PBS-0.05% Tween®20 (Sigma, Steinheim, Germany). For detection of phosphorylated tyrosine we used homemade biotynilated 4G10-antibody (0.5 μg/ml) in PBS-0.05% Tween®20+10% FBS (100 μl/well) and incubated the 96-well plate for 2 h at room temperature. The anti-phosphotyrosine mouse monoclonal antibody 4G10 was biotynilated with Sulfo-NHS®-Biotin according to the suppliers protocol (Pierce, Rockford, Ill., USA) and purified by Mirco Bio-Spin 6 Chromatograpy Columns (BIO RAD Laboratories, Inc., Hercules, Calif., USA) using PBS as diluent. Plates were washed 5 times with PBS-0.05% Tween®20. For biding to biotin Alkaline Phosphatase Conjugated Strepavidin SA110 (Millipore, Billerica, Mass., USA) (1:4000) was used in PBS-0.05% Tween20+10% FBS (100 μl/well) and incubated for 30 min at room temperature. Plates were washed 5 times with PBS-0.05% Tween20. For fluorimetric detection of alkaline phosphatase AttoPhos Substrate Set (Roche diagnostics GmbH, Mannheim, Germany) was used (100 μl/well). The fluorimetric signal was quantified after 90 min at 430/560 nm wavelength using a TECAN Ultra Evolution plate reader (Tecan Deutschland GmbH, Crailsheim, Germany).

Hs578T [2] = experiment: Wound healing migration assay; format: cell-based; conditions: Homo sapiens, Hs-578T; HS578T cell line; Table Ib
Method in brief: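 Cells seeded at 150000/24 well, grown to monolayer overnight, scratched with a pipette tip, then treated with compound at 12.5, 6.25 or 3.125 μM versus DMSO. Stopped by crystal violet fixation at 48-72 h once control wounds closed; IC50 taken as 50% wound size between t0 and t48 or t72.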

Hs578T [3] = experiment: Cell vitality assay (ATP assay, CellTiter-Glo); format: cell-based; conditions: Homo sapiens, Hs-578T; HS578T cell line, 72 h; Table Ib; read-out: IC50 ATP-Assay HS578T after 72 h
Method in brief: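 Cells (1000/well) incubated 72 h with test compound, top dose 12.5 μM, twofold dilutions, DMSO as reference. Lysis reagent added, luminescence recorded; background from cell-free medium wells.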

Hs578T [4] = experiment: Matrigel outgrowth assay/branching assay; format: cell-based; conditions: Homo sapiens, Hs-578T; HS578T cell line; Table Ib; read-out: Total branching inhibition in Matrigel HS578T
Method in brief: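 Read-out: microscopic images of invasive branching structures at 48 h, 72 h and 96 h. Cells sat on a 3 mg/ml Matrigel layer (set 1 h, 37° C) with compound at 3.125, 1.56 and 0.78 μM or DMSO. A concentration counts as positive only with complete branching inhibition.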

Row | Structure (SMILES) | IC50 [1] | IC50 (Hs578T [2]) | melting point | IC50 (Hs578T [3]) | IC50 (Hs578T [4])
1 | COc1cc2c(Oc3ccc(NS(=O)(=O)c4cc(Cl)ccc4Cl)cc3F)ccnc2cc1OCCN1CCOCC1 [Example 106, 2,5-Dichloro-N-{3-fluoro-4-[6-methoxy-7-(2-morpholin-4-yl-ethoxy)-quinolin-4-yloxy]-phenyl}-benzenesulfonamide] | < 500 nM | 12.5 to 50 µM | 194 to 196 °C | ≤ 12.5 µM | 10 to 25 µM
2 | COc1cc2c(Oc3ccc(NS(=O)(=O)c4cc(Cl)ccc4Cl)cc3F)ccnc2cc1OCCCN(C)C [Example 180, 2,5-Dichloro-N-{4-[7-(3-dimethylamino-propoxy)-6-methoxy-quinolin-4-yloxy]-3-fluoro-phenyl}-benzenesulfonamide] | < 500 nM | ≤ 12.5 µM | 150 to 152 °C | ≤ 12.5 µM | ≤ 10 µM
3 | COc1cc2c(Oc3ccc(NS(=O)(=O)c4csc5ccccc45)cc3F)ccnc2cc1OCCCN1CCCC(C)C1 (centres unmarked) [Example 67, Benzo[b]thiophene-3-sulfonic acid (3-fluoro-4-{6-methoxy-7-[3-(3-methyl-piperidin-1-yl)-propoxy]-quinolin-4-yloxy}-phenyl)-amide] | < 500 nM | ≤ 12.5 µM | 126 to 128 °C | ≤ 12.5 µM | ≤ 10 µM
4 | COc1cc2c(Oc3ccc(NS(=O)(=O)c4cccc(C(F)(F)F)c4)cc3F)ccnc2cc1OCCCN1CCCCC1 [Example 5, N-{3-Fluoro-4-[6-methoxy-7-(3-piperidin-1-yl-propoxy)-quinolin-4-yloxy]-phenyl}-3-trifluoromethyl-benzenesulfonamide] | < 500 nM | 12.5 to 50 µM | 123 to 126 °C | ≤ 12.5 µM | 10 to 25 µM
5 | COc1cc2c(Oc3ccc(NS(=O)(=O)c4ccc(Cl)c(Cl)c4)cc3F)ccnc2cc1OCCCN1CCCC(C)C1 (centres unmarked) [Example 52, 3,4-Dichloro-N-(3-fluoro-4-{6-methoxy-7-[3-(3-methyl-piperidin-1-yl)-propoxy]-quinolin-4-yloxy}-phenyl)-benzenesulfonamide] | < 500 nM | ≤ 12.5 µM | 123 to 124 °C | ≤ 12.5 µM | ≤ 10 µM
6 | COc1cc2c(Oc3ccc(NS(=O)(=O)c4ccccc4[N+](=O)[O-])cc3F)ccnc2cc1OCCN1CCOCC1 [Example 109, N-{3-Fluoro-4-[6-methoxy-7-(2-morpholin-4-yl-ethoxy)-quinolin-4-yloxy]-phenyl}-2-nitro-benzenesulfonamide] | < 500 nM | 12.5 to 50 µM | 129 to 131 °C | ≤ 12.5 µM | 10 to 25 µM
7 | COc1cc2c(Oc3ccc(NS(=O)(=O)c4ccccc4C)cc3F)ccnc2cc1OCCCN1CCCC(C)C1 (centres unmarked) [Example 44, N-(3-Fluoro-4-{6-methoxy-7-[3-(3-methyl-piperidin-1-yl)-propoxy]-quinolin-4-yloxy}-phenyl)-2-methyl-benzenesulfonamide] | < 500 nM | ≤ 12.5 µM | 99 to 100 °C | ≤ 12.5 µM | ≤ 10 µM
8 | COc1cc2c(Oc3ccc(NS(=O)(=O)c4ccccc4Cl)cc3F)ccnc2cc1OCCN1CCOCC1 [Example 108, 2-Chloro-N-{3-fluoro-4-[6-methoxy-7-(2-morpholin-4-yl-ethoxy)-quinolin-4-yloxy]-phenyl}-benzenesulfonamide] | < 500 nM | 12.5 to 50 µM | 180 to 181 °C | ≤ 12.5 µM | 10 to 25 µM

More lines, main results first:

Row | IC50 [1] | IC50 (Hs578T [2]) | melting point | Structure (SMILES) | IC50 (Hs578T [3]) | IC50 (Hs578T [4])
9 | 500 to 3000 nM | ≤ 12.5 µM | 177 to 178 °C | COc1cc2c(Oc3cccc(NS(=O)(=O)c4cc(Cl)sc4Cl)c3)ccnc2cc1OCCCN1CCN(C)CC1 [Example 134, 2,5-Dichloro-thiophene-3-sulfonic acid (3-{6-methoxy-7-[3-(4-methyl-piperazin-1-yl)-propoxy]-quinolin-4-yloxy}-phenyl)-amide] | ≤ 12.5 µM | ≤ 10 µM
10 | < 500 nM | ≤ 12.5 µM | 119 to 121 °C | COc1cc2c(Oc3ccc(NS(=O)(=O)c4c(Cl)csc4Cl)cc3F)ccnc2cc1OCCCN1CCCC(C)C1 (centres unmarked) [Example 64, 2,4-Dichloro-thiophene-3-sulfonic acid (3-fluoro-4-{6-methoxy-7-[3-(3-methyl-piperidin-1-yl)-propoxy]-quinolin-4-yloxy}-phenyl)-amide] | ≤ 12.5 µM | 10 to 25 µM
11 | < 500 nM | ≤ 12.5 µM | 144 to 145 °C | COc1cc2c(Oc3ccc(NS(=O)(=O)c4cc(Cl)ccc4Cl)cc3Cl)ccnc2cc1OCCCN1CCN(C)CC1 [Example 124, 2,5-Dichloro-N-(3-chloro-4-{6-methoxy-7-[3-(4-methyl-piperazin-1-yl)-propoxy]-quinolin-4-yloxy}-phenyl)-benzenesulfonamide] | ≤ 12.5 µM | ≤ 10 µM
12 | 500 to 3000 nM | ≤ 12.5 µM | 111 to 112 °C | COc1cc2c(Oc3cccc(NS(=O)(=O)c4c(Cl)cccc4Cl)c3)ccnc2cc1OCCCN1CCN(C)CC1 [Example 128, 2,6-Dichloro-N-(3-{6-methoxy-7-[3-(4-methyl-piperazin-1-yl)-propoxy]-quinolin-4-yloxy}-phenyl)-benzenesulfonamide] | ≤ 12.5 µM | ≤ 10 µM
13 | 500 to 3000 nM | 12.5 to 50 µM | 222 to 226 °C | COc1cc2c(Oc3ccc(Cl)c(NS(=O)(=O)c4c(F)cccc4F)c3)ccnc2cc1OCCCN1CCC(C)CC1 [Example 194, N-(2-Chloro-5-{6-methoxy-7-[3-(4-methyl-piperidin-1-yl)-propoxy]-quinolin-4-yloxy}-phenyl)-2,6-difluoro-benzenesulfonamide] | 12.5 to 50 µM | 10 to 25 µM
